Assay results taken from patent US20100267753A1, “METHODS OF TREATING DISORDERS ASSOCIATED WITH PROTEIN KINASE CK2 ACTIVITY” (priority 2009, published 2010).
Entries after “also recorded” stand apart in the source; their conditions may differ.

Columns and labels:
[1] = Pharmacokinetics in rat (IV bolus or oral dose); type: in vivo
Procedure: The pharmacokinetics properties of drugs were investigated in three species, following an intravenous (IV) bolus or oral (PO) dose of Compound K at the dosages indicated in the chart. Blood samples were collected at predetermined times and the plasma separated. Plasma was separated from the blood samples collected at 5, 15 and 30 minutes and 1, 2, 4, 8 and 24 hours post-dose.
Drug levels were quantified by the LC/MS/MS method described below. Noncompartmental pharmacokinetic analysis was applied for intravenous administration. A linear trapezoidal rule was used to compute AUC(0-24). The terminal t1/2 and C0 were calculated using the last three and the first three data points, respectively
Bioanalysis was performed using a Quattro Micro LC/MS/MS instrument in the MRM detection mode, with an internal standard (1S). Briefly, 15 μL plasma samples were prepared for analysis using protein precipitation with 120 μL of acetonitrile. The supernatants were transferred into a 96 well plate and subjected to LC-MS/MS analysis using a Phenomenex Polar-RP HPLC column. The mobile phases were 10 mM NH4HCO3 in water (Solution-A) and 10 mM NH4HCO3 in methanol (Solution-B). The column was initially equilibrated with 25% Solution-B and followed with 100% Solution B over 5 minutes. […] Quantitation of the analytes was performed in the batch mode with two bracketing calibration curves according to the bioanalytical sample list.

HIPK3 = HIPK3 (Homo sapiens, UniProt Q9H422); test: Kinase panel IC-50, HIPK3; type: biochemical
[2] = tested on: formalin-induced persistent pain; test: Formalin-induced persistent pain model (flinching); type: in vivo, ICR mice
Procedure: See Hunskaar, et al., “The formalin test in mice: Dissociation between inflammatory and non-inflammatory pain,” Pain, vol. […] 89, 53-63 (2000). These tests were conducted with ICR mice, in accordance with guidelines established by the International Association for the Study of Pain. Compounds of the invention were used as solutions of about 3-20 mg/mL in aqueous solution at about pH 8. […] The test animals were monitored for at least 40 minutes, during which time the number of flinches occurring during each 5-minute period were observed and recorded. A cohort of 12 animals were used for each dose level of each compound tested.
The compounds were administered orally in a single dose, of 30, 100, and 200 mg/kg, one hour prior to injection of formalin Pain response was measured by flinching frequency.

DYRK2 = target: T1, DYRK2 (Homo sapiens, UniProt Q92630); test: Kinase panel IC-50, DYRK2; type: biochemical
T1 sequence (Q92630 1-601): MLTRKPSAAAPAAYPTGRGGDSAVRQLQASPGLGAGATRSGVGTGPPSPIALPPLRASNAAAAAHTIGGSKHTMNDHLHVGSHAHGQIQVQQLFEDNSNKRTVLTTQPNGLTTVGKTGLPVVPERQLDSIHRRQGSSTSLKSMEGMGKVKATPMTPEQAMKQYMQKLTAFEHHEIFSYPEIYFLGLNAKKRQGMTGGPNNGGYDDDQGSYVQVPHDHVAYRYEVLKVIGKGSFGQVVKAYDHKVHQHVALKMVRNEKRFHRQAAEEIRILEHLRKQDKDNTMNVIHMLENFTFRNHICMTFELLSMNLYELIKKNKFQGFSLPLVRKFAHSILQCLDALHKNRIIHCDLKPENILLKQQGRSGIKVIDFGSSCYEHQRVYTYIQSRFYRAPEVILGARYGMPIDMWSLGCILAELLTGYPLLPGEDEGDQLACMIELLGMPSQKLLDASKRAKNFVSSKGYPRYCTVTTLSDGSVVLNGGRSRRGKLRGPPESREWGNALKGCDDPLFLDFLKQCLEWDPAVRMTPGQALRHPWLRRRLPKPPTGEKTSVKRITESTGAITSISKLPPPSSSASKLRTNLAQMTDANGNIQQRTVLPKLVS

HIPK3, sequence (Q9H422 whole entry, species assumed): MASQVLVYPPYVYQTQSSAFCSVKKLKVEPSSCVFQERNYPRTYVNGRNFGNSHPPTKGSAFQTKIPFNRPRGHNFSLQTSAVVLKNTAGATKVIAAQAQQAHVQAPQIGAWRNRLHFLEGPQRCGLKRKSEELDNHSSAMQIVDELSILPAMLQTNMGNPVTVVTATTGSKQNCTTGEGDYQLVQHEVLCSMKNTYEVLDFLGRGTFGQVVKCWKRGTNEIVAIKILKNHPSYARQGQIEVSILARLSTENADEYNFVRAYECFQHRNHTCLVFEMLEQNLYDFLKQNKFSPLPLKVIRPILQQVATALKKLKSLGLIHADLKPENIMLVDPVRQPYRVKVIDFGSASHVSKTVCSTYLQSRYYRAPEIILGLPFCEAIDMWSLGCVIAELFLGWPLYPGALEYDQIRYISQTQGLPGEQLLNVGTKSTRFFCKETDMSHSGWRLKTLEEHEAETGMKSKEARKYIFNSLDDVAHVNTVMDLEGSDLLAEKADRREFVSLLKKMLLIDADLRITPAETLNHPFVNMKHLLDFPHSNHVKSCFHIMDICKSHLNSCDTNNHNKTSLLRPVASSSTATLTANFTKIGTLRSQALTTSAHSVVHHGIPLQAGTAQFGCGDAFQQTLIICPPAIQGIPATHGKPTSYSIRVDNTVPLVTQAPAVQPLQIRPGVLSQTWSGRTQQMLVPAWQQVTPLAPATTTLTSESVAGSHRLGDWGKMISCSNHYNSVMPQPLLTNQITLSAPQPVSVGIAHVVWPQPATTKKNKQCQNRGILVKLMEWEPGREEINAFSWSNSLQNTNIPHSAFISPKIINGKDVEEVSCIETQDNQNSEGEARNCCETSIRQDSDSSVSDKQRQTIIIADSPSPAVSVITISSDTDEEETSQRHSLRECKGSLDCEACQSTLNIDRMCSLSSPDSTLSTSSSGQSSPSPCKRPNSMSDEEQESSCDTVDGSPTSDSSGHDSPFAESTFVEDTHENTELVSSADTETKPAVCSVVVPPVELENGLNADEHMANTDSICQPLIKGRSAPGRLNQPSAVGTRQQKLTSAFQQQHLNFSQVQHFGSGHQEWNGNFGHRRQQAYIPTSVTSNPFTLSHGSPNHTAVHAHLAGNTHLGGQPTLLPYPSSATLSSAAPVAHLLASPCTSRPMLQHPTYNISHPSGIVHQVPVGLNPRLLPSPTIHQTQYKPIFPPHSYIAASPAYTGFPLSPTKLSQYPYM

SMILES: O=C(O)c1ccc2c(c1)nc(Nc1cccc(Cl)c1)c1ccncc12 [Compound K, 5-(3-chlorophenylamino)benzo[c][2,6]naphthyridine-8-carboxylic acid]
- CLs ([1]; 5.2 mg/kg IV): 1.7 mL/min/kg
- Terminal T1/2 ([1]; 5.2 mg/kg IV): 11.6 h
- % F0-inf ([1]; 10.5 mg/kg PO): 47.8%
- Cmax ([1]; plasma, 5.2 mg/kg IV): 38700 ng/mL
- AUC(0-inf) ([1]; plasma, 5.2 mg/kg IV, 25 mM sodium phosphate buffer): 44300 ng·h/mL
- Vd ([1]; plasma, 5.2 mg/kg IV, read-out: Vdss): 2 L/kg
- Cmax ([1]; plasma, 10.5 mg/kg PO): 7370 ng/mL
- AUC(0-inf) ([1]; plasma, 10.5 mg/kg PO, 25 mM phosphate buffer): 42300 ng·h/mL
- half-life ([1]; plasma, 10.5 mg/kg PO, read-out: Terminal T1/2 (converted)): 12.3 h
- IC50 (HIPK3): 45 nM
- formalin-induced flinching, Phase II ([2]; 10-40 minute phase post-injection, single oral dose 30, 100, 200 mg/kg): significantly reduced formalin-induced flinching; also recorded: statistically significant effects were seen in two of the three test groups
- formalin-induced flinching, Phase II ([2]; 10-40 minute phase, 30 mg/kg oral): effective
- formalin-induced flinching, Phase II ([2]; 10-40 minute phase, 200 mg/kg oral): effective
- formalin-induced flinching, Phase I ([2]; first 9 minute phase post-injection, single oral dose 30, 100, 200 mg/kg one hour prior to formalin): neither compound affected rates of flinching; also recorded: not statistically significant
- IC50 (DYRK2): 91 nM
